# In patent US6355799B1, “Substituted benzene compounds, process for their preparation, and herbicidal and defoliant compositions containing them” (ISK Americas Incorporated, priority 1997, dated 2002):
# Experiments:
# Assay type in all cases: in vivo
# [1] = test system: redroot pigweed (Amaranthus retroflexus, AMARE); assay: Pre-emerge test, greenhouse herbicide activity screening; conditions: for Pre-emerge Herbicidal Activity AMARE: phytotoxicity rating 0-100, 14 days after application; for Pre-emerge Herbicidal Activity, phytotoxicity rating (0-100), AMARE: rated 14 days after application, 0 = no damage, 100 = complete death
# In short: (§1)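 Plants grown in 10 cm pots of sandy loam mix received acetone-dissolved compounds through a moving flat-fan nozzle. Doses ranged from 15 to 1000 g ai/ha. Pre-emerge pots were seeded one day earlier, post-emerge pots 8–21 days earlier. Fourteen days on, each pot was graded 0–100 for damage.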
# [2] = test system: barnyardgrass (Echinochloa crus-galli, ECHCG); assay: as above; conditions: for Pre-emerge Herbicidal Activity ECHCG: phytotoxicity rating 0-100, 14 days after application; for Pre-emerge Herbicidal Activity, phytotoxicity rating (0-100), ECHCG: rated 14 days after application, 0 = no damage, 100 = complete death
# In short: (§2)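 Rating: 0–100 visual injury, 14 DAA. Application: acetone, 187 l/ha, 15–1000 g ai/ha, flat-fan track sprayer with nozzle 40–45 cm above soil or canopy. Post-emerge runs used 0.25% v/v surfactant on 2–3 leaf plants.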
# [3] = test system: green foxtail (Setaria viridis, SETVI); assay: as above; conditions: for Pre-emerge Herbicidal Activity SETVI: phytotoxicity rating 0-100, 14 days after application; for Pre-emerge Herbicidal Activity, phytotoxicity rating (0-100), SETVI: rated 14 days after application, 0 = no damage, 100 = complete death
# In short: as §2
# [4] = test system: ivyleaf morningglory (Ipomoea hederacea, IPOHE); assay: as above; conditions: for Pre-emerge Herbicidal Activity IPOHE: phytotoxicity rating 0-100, 14 days after application; for Pre-emerge Herbicidal Activity, phytotoxicity rating (0-100), IPOHE: rated 14 days after application, 0 = no damage, 100 = complete death
# In short: as §2
# [5] = test system: johnsongrass (Sorghum halepense, SORHA); assay: as above; conditions: for Pre-emerge Herbicidal Activity SORHA: phytotoxicity rating 0-100, 14 days after application; for Pre-emerge Herbicidal Activity, phytotoxicity rating (0-100), SORHA: rated 14 days after application, 0 = no damage, 100 = complete death
# In short: as §2
# [6] = test system: lambsquarters (Chenopodium album, CHEAL); assay: as above; conditions: for Pre-emerge Herbicidal Activity CHEAL: phytotoxicity rating 0-100, 14 days after application; for Pre-emerge Herbicidal Activity, phytotoxicity rating (0-100), CHEAL: rated 14 days after application, 0 = no damage, 100 = complete death
# In short: as §2
# [7] = test system: large crabgrass (Digitaria sanguinalis, DIGSA); assay: as above; conditions: for Pre-emerge Herbicidal Activity DIGSA: phytotoxicity rating 0-100, 14 days after application; for Pre-emerge Herbicidal Activity, phytotoxicity rating (0-100), DIGSA: rated 14 days after application, 0 = no damage, 100 = complete death
# In short: as §2
# [8] = test system: sicklepod (Cassia obtusifolia, CASOB); assay: as above; conditions: for Pre-emerge Herbicidal Activity CASOB: phytotoxicity rating 0-100, 14 days after application; for Pre-emerge Herbicidal Activity, phytotoxicity rating (0-100), CASOB: rated 14 days after application, 0 = no damage, 100 = complete death
# In short: as §2
# [9] = test system: velvetleaf (Abutilon theophrasti, ABUTH); assay: as above; conditions: for Pre-emerge Herbicidal Activity ABUTH: phytotoxicity rating 0-100, 14 days after application; for Pre-emerge Herbicidal Activity, phytotoxicity rating (0-100), ABUTH: rated 14 days after application, 0 = no damage, 100 = complete death
# In short: as §2
# [10] = test system: field corn (Zea mays L., var. Dekalb 535, CORN); assay: Pre-emerge test, crop safety; conditions: for Pre-emerge Herbicidal Activity CORN: crop damage rating 0-100, 14 days after application; for Pre-emerge phytotoxicity rating (0-100), crop damage, CORN: rated 14 days after application, 0 = no damage, 100 = complete death
# In short: (§3)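 Herbicidal damage is scored 0 (none) to 100 (complete plant death) two weeks after a simulated field spray. Rates span 15–1000 g ai/ha, delivered in acetone at 187 l/ha. For post-emergence treatments, plants have 2–3 leaves and the spray carries 0.25% v/v non-ionic surfactant.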
# [11] = test system: upland rice (Oryza sp., var. Tebonnet, RICE); assay: Pre-emerge test, crop safety; conditions: for Pre-emerge Herbicidal Activity RICE: crop damage rating 0-100, 14 days after application; for Pre-emerge phytotoxicity rating (0-100), crop damage, RICE: rated 14 days after application, 0 = no damage, 100 = complete death
# In short: as §3
# [12] = test system: barnyardgrass (Echinochloa crus-galli, ECHCG); assay: Post-emerge test, greenhouse herbicide activity screening; conditions: post-emerge, 14 days after application, rating scale 0-100
# In short: (§4)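 Compounds in acetone were track-sprayed at 15-1000 g ai/ha (187 l/ha) on sandy loam pots: pre-emerge one day after seeding, post-emerge at 2-3 leaf stage with 0.25% v/v non-ionic surfactant. Phytotoxicity was rated 14 days later on a 0 (no damage) to 100 (complete death) scale.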
# [13] = test system: green foxtail (Setaria viridis, SETVI); assay: as above; conditions: post-emerge, 14 days after application, rating scale 0-100
# In short: as §4
# [14] = test system: ivyleaf morningglory (Ipomoea hederacea, IPOHE); assay: as above; conditions: post-emerge, 14 days after application, rating scale 0-100
# In short: as §4
# [15] = test system: johnsongrass (Sorghum halepense, SORHA); assay: as above; conditions: post-emerge, 14 days after application, rating scale 0-100
# In short: as §4
# [16] = test system: lambsquarters (Chenopodium album, CHEAL); assay: as above; conditions: post-emerge, 14 days after application, rating scale 0-100
# In short: as §4
# [17] = test system: large crabgrass (Digitaria sanguinalis, DIGSA); assay: as above; conditions: post-emerge, 14 days after application, rating scale 0-100
# In short: as §4
# [18] = test system: redroot pigweed (Amaranthus retroflexus, AMARE); assay: as above; conditions: post-emerge, 14 days after application
# In short: as §4
# [19] = test system: sicklepod (Cassia obtusifolia, CASOB); assay: as above; conditions: post-emerge, 14 days after application, rating scale 0-100
# In short: as §4
# [20] = test system: velvetleaf (Abutilon theophrasti, ABUTH); assay: as above; conditions: post-emerge, 14 days after application, rating scale 0-100
# In short: as §4
# [21] = test system: field corn (Zea mays L., var. Dekalb 535, CORN); assay: Post-emerge test, crop safety; conditions: post-emerge, 14 days after application, rating scale 0-100
# In short: as §1
# [22] = test system: upland rice (Oryza sp., var. Tebonnet, RICE); assay: Post-emerge test, crop safety; conditions: post-emerge, 14 days after application, rating scale 0-100
# In short: as §1
# [23] = 250 g ai/ha, rating scale 0-100
smiles,measurement,setting,value
COc1c(Cl)cc(F)c(-n2c(=O)cc(C(F)(F)F)n(C)c2=O)c1NC(=O)NCc1ccccc1 [Compound 3-6],Pre-emerge Herbicidal Activity AMARE,[1]; 63 g ai/ha,90
same,Pre-emerge Herbicidal Activity AMARE,[1]; 250 g ai/ha,100
same,Pre-emerge Herbicidal Activity ECHCG,[2]; 63 g ai/ha,40
same,Pre-emerge Herbicidal Activity ECHCG,[2]; 250 g ai/ha,80
same,Pre-emerge Herbicidal Activity SETVI,[3]; 63 g ai/ha,100
same,Pre-emerge Herbicidal Activity SETVI,[3]; 250 g ai/ha,100
same,Pre-emerge Herbicidal Activity IPOHE,[4]; 63 g ai/ha,100
same,Pre-emerge Herbicidal Activity IPOHE,[4]; 250 g ai/ha,95
same,Pre-emerge Herbicidal Activity SORHA,[5]; 63 g ai/ha,30
same,Pre-emerge Herbicidal Activity SORHA,[5]; 250 g ai/ha,80
same,Pre-emerge Herbicidal Activity CHEAL,[6]; 63 g ai/ha,100
same,Pre-emerge Herbicidal Activity CHEAL,[6]; 250 g ai/ha,100
same,Pre-emerge Herbicidal Activity DIGSA,[7]; 63 g ai/ha,30
same,Pre-emerge Herbicidal Activity DIGSA,[7]; 250 g ai/ha,100
same,Pre-emerge Herbicidal Activity CASOB,[8]; 63 g ai/ha,100
same,Pre-emerge Herbicidal Activity CASOB,[8]; 250 g ai/ha,100
same,Pre-emerge Herbicidal Activity ABUTH,[9]; 63 g ai/ha,100
same,Pre-emerge Herbicidal Activity ABUTH,[9]; 250 g ai/ha,100
same,Pre-emerge Herbicidal Activity CORN,[10]; 63 g ai/ha,0
same,Pre-emerge Herbicidal Activity CORN,[10]; 250 g ai/ha,90
same,Pre-emerge Herbicidal Activity RICE,[11]; 63 g ai/ha,30
same,Pre-emerge Herbicidal Activity RICE,[11]; 250 g ai/ha,80
same,phytotoxicity rating ECHCG,[12]; 63 g ai/ha,0
same,phytotoxicity rating ECHCG,[12]; 250 g ai/ha,20
same,phytotoxicity rating SETVI,[13]; 63 g ai/ha,0
same,phytotoxicity rating SETVI,[13]; 250 g ai/ha,40
same,phytotoxicity rating IPOHE,[14]; 63 g ai/ha,90
same,phytotoxicity rating IPOHE,[14]; 250 g ai/ha,100
same,phytotoxicity rating SORHA,[15]; 63 g ai/ha,0
same,phytotoxicity rating SORHA,[15]; 250 g ai/ha,20
same,phytotoxicity rating CHEAL,[16]; 63 g ai/ha,50
same,phytotoxicity rating CHEAL,[16]; 250 g ai/ha,90
same,phytotoxicity rating DIGSA,[17]; 63 g ai/ha,0
same,phytotoxicity rating DIGSA,[17]; 250 g ai/ha,10
same,phytotoxicity rating AMARE,"[18]; 63 g ai/ha, rating scale 0-100 (0 no damage, 100 complete death)",100
same,phytotoxicity rating AMARE,[18]; [23],100
same,phytotoxicity rating CASOB,[19]; 63 g ai/ha,40
same,phytotoxicity rating CASOB,[19]; 250 g ai/ha,90
same,phytotoxicity rating ABUTH,[20]; 63 g ai/ha,100
same,phytotoxicity rating ABUTH,[20]; 250 g ai/ha,100
same,phytotoxicity rating CORN (crop damage),[21]; 63 g ai/ha,20
same,phytotoxicity rating CORN (crop damage),[21]; 250 g ai/ha,70
same,phytotoxicity rating RICE (crop damage),[22]; 63 g ai/ha,30
same,phytotoxicity rating RICE (crop damage),[22]; 250 g ai/ha,70
COc1c(Cl)cc(F)c(-n2c(=O)cc(C(F)(F)F)n(C)c2=O)c1N(C(=O)COc1ccccc1)C(=O)COc1ccccc1 [2-120],"Pre-emerge Herbicidal Activity, phytotoxicity rating (0-100), AMARE",[1]; 63 g ai/ha,90
same,"Pre-emerge Herbicidal Activity, phytotoxicity rating (0-100), AMARE",[1]; 250 g ai/ha,100
same,"Pre-emerge Herbicidal Activity, phytotoxicity rating (0-100), ECHCG",[2]; 63 g ai/ha,60
same,"Pre-emerge Herbicidal Activity, phytotoxicity rating (0-100), ECHCG",[2]; 250 g ai/ha,90
same,"Pre-emerge Herbicidal Activity, phytotoxicity rating (0-100), SETVI",[3]; 63 g ai/ha,70
same,"Pre-emerge Herbicidal Activity, phytotoxicity rating (0-100), SETVI",[3]; 250 g ai/ha,100
same,"Pre-emerge Herbicidal Activity, phytotoxicity rating (0-100), IPOHE",[4]; 63 g ai/ha,50
same,"Pre-emerge Herbicidal Activity, phytotoxicity rating (0-100), IPOHE",[4]; 250 g ai/ha,80
same,"Pre-emerge Herbicidal Activity, phytotoxicity rating (0-100), SORHA",[5]; 63 g ai/ha,50
same,"Pre-emerge Herbicidal Activity, phytotoxicity rating (0-100), SORHA",[5]; 250 g ai/ha,95
same,"Pre-emerge Herbicidal Activity, phytotoxicity rating (0-100), CHEAL",[6]; 63 g ai/ha,100
same,"Pre-emerge Herbicidal Activity, phytotoxicity rating (0-100), CHEAL",[6]; 250 g ai/ha,100
same,"Pre-emerge Herbicidal Activity, phytotoxicity rating (0-100), DIGSA",[7]; 63 g ai/ha,80
same,"Pre-emerge Herbicidal Activity, phytotoxicity rating (0-100), DIGSA",[7]; 250 g ai/ha,100
same,"Pre-emerge Herbicidal Activity, phytotoxicity rating (0-100), CASOB",[8]; 63 g ai/ha,40
same,"Pre-emerge Herbicidal Activity, phytotoxicity rating (0-100), CASOB",[8]; 250 g ai/ha,70
same,"Pre-emerge Herbicidal Activity, phytotoxicity rating (0-100), ABUTH",[9]; 63 g ai/ha,100
same,"Pre-emerge Herbicidal Activity, phytotoxicity rating (0-100), ABUTH",[9]; 250 g ai/ha,100
same,"Pre-emerge phytotoxicity rating (0-100), crop damage, CORN",[10]; 63 g ai/ha,0
same,"Pre-emerge phytotoxicity rating (0-100), crop damage, CORN",[10]; 250 g ai/ha,90
same,"Pre-emerge phytotoxicity rating (0-100), crop damage, RICE",[11]; 63 g ai/ha,80
same,"Pre-emerge phytotoxicity rating (0-100), crop damage, RICE",[11]; 250 g ai/ha,95
same,phytotoxicity rating ECHCG,[12]; 63 g ai/ha,40
same,phytotoxicity rating ECHCG,[12]; 250 g ai/ha,30
same,phytotoxicity rating SETVI,[13]; 63 g ai/ha,20
same,phytotoxicity rating SETVI,[13]; 250 g ai/ha,60
same,phytotoxicity rating IPOHE,[14]; 63 g ai/ha,100
same,phytotoxicity rating IPOHE,[14]; 250 g ai/ha,100
same,phytotoxicity rating SORHA,[15]; 63 g ai/ha,40
same,phytotoxicity rating SORHA,[15]; 250 g ai/ha,50
same,phytotoxicity rating CHEAL,[16]; 63 g ai/ha,80
same,phytotoxicity rating CHEAL,[16]; 250 g ai/ha,80
same,phytotoxicity rating DIGSA,[17]; 63 g ai/ha,10
same,phytotoxicity rating DIGSA,[17]; 250 g ai/ha,60
same,phytotoxicity rating AMARE,"[18]; 63 g ai/ha, rating scale 0-100",90
same,phytotoxicity rating AMARE,[18]; [23],100
same,phytotoxicity rating CASOB,[19]; 63 g ai/ha,40
same,phytotoxicity rating CASOB,[19]; 250 g ai/ha,30
same,phytotoxicity rating ABUTH,[20]; 63 g ai/ha,100
same,phytotoxicity rating ABUTH,[20]; 250 g ai/ha,100
same,phytotoxicity rating CORN,[21]; 63 g ai/ha,50
same,phytotoxicity rating CORN,[21]; 250 g ai/ha,70
same,phytotoxicity rating RICE,[22]; 63 g ai/ha,50
same,phytotoxicity rating RICE,[22]; 250 g ai/ha,90
